# Test results: paper PMC12436592 (Nature Communications, 2025)
# Values joined by “and” are separate entries in the source; they are usually repeats but may differ in a detail not shown here. Equal values may be shown once.
# Key:
# [1] = target: T1, hP2X7R (Homo sapiens, UniProt Q99572); assay: Calcium influx assay, 1321N1 astrocytoma cells, BzATP EC80; assay type: cell-based; parameters: expressed in transfected cells; conditions: for IC50: 1321N1 cells, BzATP EC80, mean ± SD
# T1 sequence (Q99572 1-595): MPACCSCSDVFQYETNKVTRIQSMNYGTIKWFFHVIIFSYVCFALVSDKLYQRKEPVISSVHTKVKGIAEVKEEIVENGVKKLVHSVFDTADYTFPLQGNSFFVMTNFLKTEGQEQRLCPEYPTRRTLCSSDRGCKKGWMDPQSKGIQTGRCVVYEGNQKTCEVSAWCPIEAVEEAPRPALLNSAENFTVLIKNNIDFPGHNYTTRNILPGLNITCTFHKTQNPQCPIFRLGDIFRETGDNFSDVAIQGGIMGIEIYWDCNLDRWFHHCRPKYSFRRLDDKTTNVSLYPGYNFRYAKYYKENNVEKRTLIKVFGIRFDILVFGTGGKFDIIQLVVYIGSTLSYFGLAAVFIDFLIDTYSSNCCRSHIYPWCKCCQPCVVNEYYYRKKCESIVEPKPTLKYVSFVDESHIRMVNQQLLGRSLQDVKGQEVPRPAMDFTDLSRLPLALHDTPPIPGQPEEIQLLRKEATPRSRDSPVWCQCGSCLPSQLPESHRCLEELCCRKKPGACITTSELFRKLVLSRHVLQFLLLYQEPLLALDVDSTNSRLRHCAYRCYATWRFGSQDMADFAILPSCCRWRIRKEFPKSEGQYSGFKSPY
# From the text: For 1321N1 astrocytoma cells stably expressing the human, rat, or mouse P2X7Rs, or hP2X2Rs or hP2X4Rs, the fluorescent Ca^2+-chelating dye Fluo-4 acetoxymethyl ester (Fluo-4 AM, Thermo Fisher Scientific, Dreieich, Germany) was used. For 1321N1 astrocytoma cell lines recombinantly expressing the hP2X1Rs or hP2X3Rs, the FLIPR® Calcium 5 Assay Kit (Molecular Devices, San José, CA, USA) was employed. Human, rat, and mouse P2X7Rs as well as hP2X1Rs, hP2X2Rs, hP2X3Rs, and hP2X4Rs were recombinantly expressed in 1321N1 astrocytoma cells using a retroviral expression system[72]–[74].
# On the first day, 45,000 cells per well (30,000 cells for the human P2X3 receptor-expressing cells) were seeded into a 96-well polystyrene microplate with a black, flat bottom in a final volume of 200 µL. After overnight incubation at 37 °C and 10% CO2 (5% CO2 for the human P2X3R-expressing cell line), the medium was removed by inverting the plate, and the cells were loaded with dye solution. Hanks’ balanced salt solution (HBSS, Thermo Fisher Scientific, Dreieich, Germany) was used as the assay buffer for human P2X1R, P2X2R, P2X3R, and P2X4R. For the P2X7Rs, a different assay buffer was used: 150 mM sodium-glutamate, 5 mM KCl, 0.5 mM CaCl2, 0.1 mM MgCl2, 10 mM D-glucose, 25 mM 4-(2-hydroxyethyl)-1-piperazineethanesulfonic acid (HEPES), pH 7.4. The dye solutions were freshly prepared. The Fluo-4 AM solution contained 3 µM of Fluo-4 AM in assay buffer and 1% of the non-ionic detergent Pluronic F-127® (Sigma-Aldrich, Taufkirchen, Germany). The Calcium 5 dye, used for hP2X1Rs and hP2X3Rs, was prepared in HBSS buffer. Cells were loaded with Fluo-4 AM and incubated for 1 h at room temperature with gentle shaking (100 rpm), while those loaded with the Calcium 5 dye were incubated for 1 h at 37 °C. After incubation, the dye solution was carefully removed from the plate, and buffer was added to the cells for the evaluation of agonists. […] The agonist solution was prepared in a 96-well transparent plate, obtaining the respective EC80 values. As a control, assay buffer without the test compound was used. After 30 min of incubation with antagonist, the plates were measured using a fluorescence imaging plate reader NOVOstar (BMG Labtech GmbH, Offenburg, Germany) at an excitation wavelength of 485 nm and an emission wavelength of 520 nm, for 30 s at 0.4 s intervals. Calcium influx measurements were then initiated by automatic addition of 20 µL of agonist solution by the plate reader’s pipetting device. Data were analyzed using Microsoft Excel and GraphPad Prism (Version 8.0, San Diego, CA, USA). EC80 and IC50 values were calculated using nonlinear regression with a sigmoidal dose-response equation.
# [2] = target: T1, hP2X7R; assay: Ethidium bromide accumulation in hP2X7R-expressing HEK293 cells; assay type: cell-based; parameters: expressed in transfected cells; conditions: for ΔΔGexp: relative to UB-ALT-P30, from experimental pIC50 values, T = 298 K; for MAX100 (% of maximum accumulation, replicates 1-3): single replicates
# Description: Human P2X7R-expressing HEK293 cells were cultured in a humidified atmosphere of 5% CO2 at 37 °C in Dulbecco’s Modification of Eagle’s Medium (DMEM; Corning) supplemented with 10% (v/v) fetal bovine serum (Corning) and 1% (v/v) antibiotic–antimycotic (Gibco)[75]. To perform the assay, the DMEM was removed, and the HEK293 cells were washed with 3 mL of 1X DPBS (Dulbecco’s Phosphate-Buffered Saline; Corning). After the removal of DPBS solution, the cells were detached from the dish with 1 mL of trypsin/EDTA (Gibco), and the cells were collected by centrifugation. The cells (density of 2.25 × 10^7) were re-suspended in 4-(2-hydroxyethyl)-1-piperazineethanesulfonic acid (HEPES)-buffered salt solution consisting of 140 mM potassium chloride, 1 mM ethylene diamine tetraacetic acid (EDTA), 5 mM glucose, 20 mM HEPES, and 0.1 mM ethidium bromide (pH 7.4). The vehicles or appropriate range of concentrations of compounds (10 μL, pre-diluted in 10% (v/v) DMSO in DW from 10 mM stock) were added to each well of 96-well black plate (Corning), and 80 μL of the cell suspension was subsequently added to each well. BzATP (10 μL, pre-diluted in DW from 10 mM stock) was then added, and the final assay volume was maintained at 100 μL. After the incubation in 5% CO2 at 37 °C for 2 h, the ethidium dye uptake was detected by measuring the fluorescence (excitation wavelength of 530 nm and emission wavelength of 590 nm) of each well using a CHAMELEON™ Multi-Technology Plate Reader. The antagonistic activities of compounds are expressed as the percentages relative to the maximum accumulation of ethidium bromide observed in the control group with the stimulation of the hP2X7R by an agonist, BzATP. The IC50 values of compounds as antagonists were calculated using nonlinear regression analysis using OriginPro 9.1 software.
# [3] = BzATP 6 μM, antagonist concentration 1 (unit not given)
# [4] = BzATP 6 μM, antagonist concentration 10 (unit not given)
# [5] = BzATP 6 μM, antagonist concentration 50 (unit not given)
# [6] = BzATP 6 μM, antagonist concentration 100 (unit not given)
# [7] = BzATP 6 μM, antagonist concentration 500 (unit not given)
# [8] = BzATP 6 μM, antagonist concentration 1000 (unit not given)
# [9] = BzATP 7 μM, antagonist concentration 0.1 (unit not given)
# [10] = BzATP 7 μM, antagonist concentration 0.5 (unit not given)
# [11] = BzATP 7 μM, antagonist concentration 1 (unit not given)
# [12] = BzATP 7 μM, antagonist concentration 5 (unit not given)
# [13] = BzATP 7 μM, antagonist concentration 10 (unit not given)
# [14] = BzATP 7 μM, antagonist concentration 100 (unit not given)
compound,measurement,setting,value
"O=C(NNc1ccccc1Cl)C12CC3CC(CC(C3)C1)C2 [UB-ALT-P30, reference compound]",IC50,[1],17.8 nM and 18 nM
same,"normalized calcium signal, hP2X7R IC50 curve","[1]; Log(c) M -9, 0.001 µM",71.6317 and 73.6475 and 92.6717 and 89.8426 and 81.3931
same,mean % of maximum accumulation,[2]; [3],94.223%
same,mean % of maximum accumulation,[2]; [4],86.3844%
same,mean % of maximum accumulation,[2]; [5],53.8482%
same,mean % of maximum accumulation,[2]; [6],26.7232%
same,mean % of maximum accumulation,[2]; [7],9.424%
same,mean % of maximum accumulation,[2]; [8],9.144%
same,IC50,"[2]; hP2X7R, ethidium bromide accumulation, mean ± SD, triplicate",47 ± 4 nM
same,ΔΔGexp,[2],0 kcal/mol
same,"MAX100 (% of maximum accumulation, replicates 1-3)",[2]; [3],87.3374 and 88.4652 and 106.867
same,"MAX100 (% of maximum accumulation, replicates 1-3)",[2]; [4],79.5317 and 91.4204 and 88.2012
same,"MAX100 (% of maximum accumulation, replicates 1-3)",[2]; [5],46.9211 and 58.6273 and 55.9961
same,"MAX100 (% of maximum accumulation, replicates 1-3)",[2]; [6],22.0295 and 25.5481 and 32.5919
same,"MAX100 (% of maximum accumulation, replicates 1-3)",[2]; [7],9.107 and 5.6244 and 13.5397
same,"MAX100 (% of maximum accumulation, replicates 1-3)",[2]; [8],6.418 and 4.862 and 16.1509
CC12CC3CC1(C)C1(C)CC3(C(=O)NNc3ccccc3Cl)CC21C [UB-MBX-46],activity at 0.0003 µM,"[1]; 1321-N1, Log(c) M -9.52288, read-out: normalized calcium signal, hP2X7R IC50 curve",82.4%
same,activity at 0.0001 µM,"[1]; 1321-N1, Log(c) M -10, read-out: normalized calcium signal, hP2X7R IC50 curve",110%
same,activity at 30 pM,"[1]; 1321-N1, Log(c) M -10.5229, read-out: normalized calcium signal, hP2X7R IC50 curve",100%
same,IC50,[1],0.514 ± 0.035 nM
same,"normalized calcium signal, hP2X7R IC50 curve","[1]; Log(c) M -9.52288, 0.0003 µM",83.2395 and 75.8405 and 85.4678 and 91.9881
same,"normalized calcium signal, hP2X7R IC50 curve","[1]; Log(c) M -10, 0.0001 µM",91.6497 and 103.346 and 103.977
same,times more potent than UB-ALT-P30 on the hP2X7R,[1]; calcium influx,~ 35 x
same,mean % of maximum accumulation,[2]; [9],86.0633%
same,mean % of maximum accumulation,[2]; [10],74.1428%
same,mean % of maximum accumulation,[2]; [11],59.2287%
same,mean % of maximum accumulation,[2]; [12],27.1109%
same,mean % of maximum accumulation,[2]; [13],10.5059%
same,mean % of maximum accumulation,[2]; [14],11.5505%
same,ΔΔGexp,[2],-2.37 ± 0.32 kcal/mol
same,"MAX100 (% of maximum accumulation, replicates 1-3)",[2]; [9],84.5638 and 89.1729 and 84.4531
same,"MAX100 (% of maximum accumulation, replicates 1-3)",[2]; [10],75.8389 and 73.3083 and 73.2812
same,"MAX100 (% of maximum accumulation, replicates 1-3)",[2]; [11],53.915 and 63.4586 and 60.3125
same,"MAX100 (% of maximum accumulation, replicates 1-3)",[2]; [12],28.9336 and 34.5865 and 17.8125
same,"MAX100 (% of maximum accumulation, replicates 1-3)",[2]; [13],10.962 and 9.774 and 10.7812
same,"MAX100 (% of maximum accumulation, replicates 1-3)",[2]; [14],12.4534 and 11.7293 and 10.4688
